Values after ≈ are worked out from the molar mass of the structure shown.
Experiments:
[1] = test system: SCC2095 (oral squamous cell carcinoma cell line); assay: Anti-proliferation MTT assay in SCC2095 cell line; format: cell-based, human
Caco-2 cell monolayer = assay: Transport study in Caco-2 cell culture model; format: in vitro ADME, human; conditions: translated from Caco-2 permeability; ref Artursson & Karlsson, 1991
SCC2095 cells = assay: Cellular uptake / intracellular accumulation in SCC2095 cells; format: in vitro ADME, human; conditions: SCC2095 cells incubated with GS409, at different incubation time (2 or 4 hours)
[2] = SCC2095 cell line, MTT, 48 hours incubation

IC50 [1, 2]	IC50 ([1]; Homo sapiens, 48 h)	Structure (SMILES)	also measured
>100 µg/mL	–	CC1(C)O[C@H]2CC(=O)OC[C@@]23C1=C(O)C(=O)[C@]1(C)[C@@H]3CC[C@@]2(C)[C@H](c3ccoc3)OC(=O)[C@H]3O[C@]321 [Evodol, evodol]	–
–	> 100 µg/mL	CC1(C)O[C@H]2CC(=O)OC[C@]23[C@H]2CC[C@@]4(C)[C@H](c5ccoc5)OC(=O)[C@H]5O[C@]54[C@]2(C)C(=O)C[C@@H]13 [Limonin, limonin]	–
–	> 100 µg/mL	CC1(C)OC(=O)C=C[C@]2(C)[C@H]3CC[C@@]4(C)[C@H](c5ccoc5)OC(=O)[C@H]5O[C@]54[C@]3(C)C(=O)C[C@@H]12 [Obacunone, obacunone]	–
>100 µg/mL	–	CC1(C)O[C@H]2CC(=O)OC[C@]23[C@H]2CC[C@@]4(C)[C@H](c5ccoc5)OC(=O)[C@H]5O[C@]54[C@]2(C)[C@@H](O)C(=O)[C@@H]13 [Rutaevine, rutaevine]	–

Second part, the compound before the results:

Structure (SMILES)	IC50 [1, 2]	IC50 ([1]; Homo sapiens, 48 h)	also measured
O=c1[nH]cc(F)c(=O)[nH]1 [5-Fu (positive control), reference compound]	28.61 µg/mL (≈ 220 µM)	–	–
CC1=C2C(=O)O[C@@H](c3ccoc3)[C@]2(C)CCC1 [Fraxinellone, fraxinellone]	–	28.6 µg/mL (≈ 123 µM)	absorption in the human intestine following oral administration (Caco-2 cell monolayer): more than 70%; intracellular accumulation among the 9 components (SCC2095 cells): relatively high
Oc1ccc2c(c1)OC[C@H]1c3cc4c(cc3O[C@@H]21)OCO4 [Maackiain, maackiain]	–	86.3 µg/mL (≈ 304 µM)	intracellular accumulation among the 9 components (SCC2095 cells): relatively high
O=C1CCC[C@@H]2[C@H]3CCCN4CCC[C@@H](CN12)[C@@H]34 [Matrine, matrine]	–	> 100 µg/mL	–
OC[C@H]1O[C@@H](Oc2ccc3c(c2)OC[C@H]2c4cc5c(cc4O[C@@H]32)OCO5)[C@H](O)[C@@H](O)[C@@H]1O [Trifolirhizin, trifolirhizin]	–	> 100 µg/mL	–

Source: PMC4541799 (Journal of ethnopharmacology, 2015)
